{
  "source": "patent US20040197834A1",
  "about": "“Method to increase expression of pgd2 receptors and assays for identifying modulators of prostaglandin d2 receptors” (priority 2001, published 2004)",
  "key": {"[1]": {"tested_on": "PGD2 receptors (CRTH2 and DP) on HL-60 membranes", "test": "[3H]PGD2 radioligand binding assay on HL-60 cell membranes", "details": "for differentiation-induced increase in PGD2 binding competed away: butyric acid differentiated HL-60, Example 3; for tritiated PGD2 binding on membranes competed away: membranes from butyric acid-differentiated HL-60 cells, 1 uM unlabeled competitor, FIG. 2; for binding of labeled PGD2 to membranes: membranes from undifferentiated HL-60 cells", "procedure": "(§1) Membranes were isolated from butyric acid-differentiated HL-60 or undifferentiated AML14.3D10 and used in the PGD2 binding assay in the presence or absence of various 1 uM of non-labeled receptor agonists described here below:\n(§2) Specific binding of radioactive PGD2 to the membrane was measured and compared to the value obtained in the absence of competitor (ctrl=100% maximum binding).\n(§3) HL-60 or AML14.3D10 cells are collected by centrifugation for 6 min at 300 g at 4° C., washed with PBS, centrifuged as before and suspended in 10 mM HEPES/KOH pH 7.4, 1 mM EDTA. The cells are disrupted by nitrogen cavitation (800 psi for 30 min. on ice) in the presence of protease inhibitors (2 mM AEBSF, 10 μM E-64, 100 μM leupeptin and 0.05 mg/ml pepstatin). Cell membrane is isolated by differential centrifugation at 4° C., first at 1000 g for 10 min then 160 000 g for 30 min. After centrifugation the pellet comprising the cell membrane is suspended in 10 mM HEPES/KOH pH 7.4, 1 mM EDTA, pH 7.4 buffer using Dounce homogenization.\n(§4) For these assays, specific receptor binding is defined as total associated radioactivity minus the radioactivity measured in the presence of an excess of unlabeled competing ligand. Where possible, more than one competing ligand is used to define residual nonspecific binding. Ligand binding assays are performed using whole cells or cell membranes derived therefrom.\n(§5) Radioligand binding assays are performed in 10 mM HEPES/KOH pH 7.4, 1 mM EDTA containing 10 mM MnCl2 and 0.8 nM [^3H]PGD2, in a final volume of 0.2 ml. The reaction is initiated by the addition of 250 μg of membrane protein, prepared as described above. Ligands in dimethylsulfoxide which is kept constant at 1% (v/v) of the final incubation volume are added. Non-specific binding is determined in the presence of 10 μM PGD2. Incubation is conducted for 60 min. at room temperature and is terminated by rapid filtration through GF/C filters prewetted in cold assay incubation buffer (no EDTA) using a Brandel™ harvester. The filter is then washed with 4 ml of the same buffer and residual radioligand bound to the filter is determined by liquid scintillation counting following equilibration in 5 ml Ultima Gold™ (Packard)."}, "[2]": {"tested_on": "PGD2 receptors (CRTH2 and DP) on AML14.3D10 membranes", "test": "[3H]PGD2 radioligand binding assay on AML14.3D10 cell membranes", "details": "for differentiation-induced increase in PGD2 binding competed away: butyric acid differentiated AML14.3D10, Example 3; for tritiated PGD2 binding on membranes competed away: membranes from nondifferentiated or differentiated AML14.3D10, 1 uM unlabeled competitor, FIG. 2; for binding of labeled PGD2 to membranes: membranes from undifferentiated AML14.3D10 cells", "procedure": "as §1, §2, §3, §4, §5"}, "HL-60 cells": {"tested_on": "HL-60 cells", "test": "Butyric acid induced differentiation of HL-60 cells, read out as PGD2 binding to membranes", "format": "cell-based", "details": "0.4 mM butyric acid for 7 days", "procedure": "(§6) For example, referring to FIG. 1, shown therein are the results of a binding assay, specifically the binding of radioactive PGD2 to membranes. The assay measures the amount of labeled […] bound to cell membranes derived from the herein disclosed cell lines. Briefly, AML14.3D10 and […] cell lines are incubated in the absence and/or presence of […] of butyric acid for 7 days. Membranes were thereafter isolated from the cells and used in aforementioned PGD2 binding assays.\n(§7) On the first day of the experiment cells are split at 2×10^5 cells/ml and supplemented with 0.4 mM butyric acid. On the fourth day the cells are diluted to 2×10^5 cells/ml and the concentration of butyric acid is adjusted to 0.4 mM. The cells are harvested on the seventh day.\n(§8) HL-60 or AML14.3D10 cells are collected by centrifugation for 6 min at 300 g at 4° C., washed with PBS, centrifuged as before and suspended in 10 mM HEPES/KOH pH 7.4, 1 mM EDTA. […]\n(§9) Radioligand binding assays are performed in 10 mM HEPES/KOH pH 7.4, 1 mM EDTA containing 10 mM MnCl2 and 0.8 nM [^3H]PGD2, in a final volume of 0.2 ml. […] Non-specific binding is determined in the presence of 10 μM PGD2. […] The filter is then washed with 4 ml of the same buffer and residual radioligand bound to the filter is determined by liquid scintillation counting following equilibration in 5 ml Ultima Gold™ (Packard)."}, "AML14.3D10 cells": {"tested_on": "AML14.3D10 cells", "test": "Butyric acid induced differentiation of AML14.3D10 cells, read out as PGD2 binding to membranes", "format": "cell-based", "details": "0.4 mM butyric acid for 7 days", "procedure": "as §6, §7, §8, §9"}},
  "note": "Entries after “also recorded” stand apart in the source; their conditions may differ.",
  "data": [
    {"smiles": "O=C(O)CCCCCCC1C(=O)NC(=O)N1CCC(O)C1CCCCC1", "note": "(centres unmarked) [BW245C]", "values": [
      {"measurement": "differentiation-induced increase in PGD2 binding competed away", "setting": "[1]", "result": "about 10%"},
      {"measurement": "tritiated PGD2 binding on membranes competed away", "setting": "[1]", "result": "about 10%"},
      {"measurement": "differentiation-induced increase in PGD2 binding competed away", "setting": "[2]", "result": "about 10%"},
      {"measurement": "tritiated PGD2 binding on membranes competed away", "setting": "[2]", "result": "about 10%"}
    ]},
    {"smiles": "CCCCCC(=O)CCC1C(=O)CC(O)C1C/C=C\\CCCC(=O)O", "note": "(centres unmarked) [DK-PGD2, 13,14-dihydro-15-keto-PGD2]", "values": [
      {"measurement": "differentiation-induced increase in PGD2 binding competed away", "setting": "[1]", "result": "About 90%"},
      {"measurement": "tritiated PGD2 binding on membranes competed away", "setting": "[1]", "result": "about 90%"},
      {"measurement": "differentiation-induced increase in PGD2 binding competed away", "setting": "[2]", "result": "About 90%"},
      {"measurement": "tritiated PGD2 binding on membranes competed away", "setting": "[2]", "result": "about 90%"}
    ]},
    {"smiles": "CCCCC[C@H](O)/C=C/[C@H]1C(=O)C[C@H](O)[C@@H]1C/C=C\\CCCC(=O)O", "note": "[PGD2, Prostaglandin D2]", "values": [
      {"measurement": "binding of labeled PGD2 to membranes", "setting": "[1]", "result": "minimal amount of PGD2 binding"},
      {"measurement": "binding of labeled PGD2 to membranes", "setting": "[1]; listed as 3HPGD2", "result": "does not bind"},
      {"measurement": "binding of labeled PGD2 to membranes", "setting": "[2]", "result": "appreciable level of PGD2 binding"},
      {"measurement": "binding of labeled PGD2 to membranes", "setting": "[2]; listed as 3HPGD2", "result": "significant level of binding"}
    ]},
    {"smiles": "CCCC(=O)O", "note": "[butyric acid]", "values": [
      {"measurement": "effect of butyric acid treatment on PGD2 binding to membranes", "setting": "HL-60 cells", "result": "significant increase in PGD2 binding; also recorded: acquired the capacity to bind"},
      {"measurement": "effect of butyric acid treatment on PGD2 binding to membranes", "setting": "AML14.3D10 cells", "result": "significant increase in PGD2 binding; also recorded: increased binding of PGD2"}
    ]}
  ]
}
